Laboratory results published in patent publication US6589950B1, “Purine derivatives inhibitors of tyrosine protein kinase SYK” (Novartis AG, priority 1999, dated 2003).
Counter-ions that a name gives are not always drawn.

Molecular target: syk kinase (Homo sapiens, UniProt P43405)
Assay: syk kinase peptide phosphorylation scintillation proximity assay (SPA)
Format: biochemical
Conditions: biotin-EDPDYEWPSA substrate, 33P-ATP, SPA beads, room temperature 30 minutes; read-out: IC50 (concentration at which 50% inhibition of syk kinase phosphorylation occurs)
Excerpt: Compounds of formula I in free or salt form are useful as pharmaceuticals. Accordingly the invention also provides a compound of formula I in free or pharmaceutically acceptable salt form for use as a pharmaceutical. The compounds of formula I in free or pharmaceutically acceptable salt form, hereinafter referred to alternatively as “agents of the invention”, inhibit the activity of the tyrosine protein kinase syk, which is an activator of pro-inflammatory cells driving an allergic response.
In this assay the effect of an agent of the invention on the phosphorylation of a peptide by syk kinase is determined. The phosphate is transferred from the terminal phosphate of adenosine triphosphate (ATP) to the biotin-modified peptide biotin-EDPDYEWPSA (available from Genosys) which is a known specific substrate for syk. When ^33P-phosphorylated peptide binds to streptavidin-polyvinyltoluene (PVT) Scintillation Proximity Assay (SPA) beads (available from Amersham), the emitted β-particles excite the fluorophore in the beads and produce light.
To the wells of an Optiplate (Canberra Packard) are added (i) the compound under test in DMSO/distilled water (10 μl), (ii) 20 μl of a composition formed by mixing 1 mM biotin-EDPDYEWPSA (5.5 μl), 300 μM ATP (18.3 μl), and ^33P-ATP in sufficient amount to add 0.1 μCi ^33P-ATP per well (1.1 μl on the day of production) and making up the volume to 2.2 ml with a buffer (Buffer A) prepared by dissolving tris-base (0.36 g) in distilled water (80 ml), adjusting the pH to 7.5 with 1M hydrochloric acid, adding 1M aqueous MgCl2 (1.5 ml), 50 mM aqueous sodium orthovanadate (30 μl) and 1M aqueous dithiothrietol (150 μl), and making the volume up to 120 ml with distilled water, (iii) 0.5% w/v syk kinase in Buffer A (20 μl). The plate is incubated at room temperature for 30 minutes with shaking, the reaction is then terminated by addition to all wells of 150 μl of a mixture prepared by reconstituting 500 mg Streptavidin-PVT SPA beads in 373 ml of Tris-buffered saline containing 673.6 g cesium chloride, 20 ml 0.5M EDTA and 27.5 mg ATP (disodium salt) per litre. The plate is again incubated at room temperature for 30 minutes with shaking, then sealed using Top Seal-S (Canberra Packard) according to the manufacturer's instructions and left to stand at room temperature for 1 hour. The resulting scintillations are counted using a Packard TopCount, each well being counted for 1 minute.
The procedure is repeated for different concentrations of test compound selected to cover the range of 0% to 100% inhibition and the concentration at which 50% inhibition of syk kinase phosphorylation occurs (IC50) for each compound is determined from concentration-inhibition curves in a conventional manner.

IC50 [nM]	SMILES
5	CN1CCN(c2ccc(Nc3nc(NC4CC4)c4nc[nH]c4n3)cc2)CC1 [Example 102]
9	c1nc2c(NC3CC3)nc(Nc3ccc(N4CCOCC4)cc3)nc2[nH]1 [Example 5]
10	CCN(C(C)=O)c1ccc(Nc2nc(NC(C)C)c3nc[nH]c3n2)cc1 [Example 170]
2	CC(=O)N1CCN(c2ccc(Nc3nc(NC4CC4)c4nc[nH]c4n3)cc2)CC1 [Example 103]
10	CC(=O)N(C)c1ccc(Nc2nc(NC3CCC3)c3nc[nH]c3n2)cc1 [Example 6]
3.6	CC(=O)N1CCN(c2ccc(Nc3nc(NC4CCC4)c4nc[nH]c4n3)cc2)CC1 [Example 104]
14	CC(=O)N(C)c1ccc(Nc2nc(NC(C)(C)C)c3nc[nH]c3n2)cc1 [Example 138]
5	CC(C)(C)OC(=O)Nc1ccc(Nc2nc(NC3CC3)c3nc[nH]c3n2)cc1 [Example 3]

Test system: not given
Assay: not given
Conditions: not given

melting point [°C]	SMILES
312 to 314	c1ccc(Nc2nc(NC3CCC3)c3[nH]cnc3n2)cc1 [Example 121, 6-Cyclobutylamino-2-anilinopurine]
201.9 to 203.7	c1nc2c(NC3CC3)nc(Nc3ccc(N4CCOCC4)cc3)nc2[nH]1 [Example 5]
314 to 318	CC(=O)N(C)c1ccc(Nc2nc(NC3CCC3)c3nc[nH]c3n2)cc1 (as salt: HCl) [Example 6]
273 to 274	CC(=O)N(C)c1ccc(Nc2nc(NC(C)(C)C)c3nc[nH]c3n2)cc1 [Example 138]
